Experimental data reported in patent US9145372B2, “Pyridazine derivatives, compositions and methods for treating cognitive impairment” (AGENEBIO, INC., priority 2010, dated 2015).

System: aged-impaired (AI) rats
Experiment: Radial Arm Maze (RAM) behavioral task, spatial memory retention
Type: in vivo, rat
Details: 3 mg/kg i.p., two-hour delay RAM
Procedure: The effects of methyl 3,5-diphenylpyridazine-4-carboxylate on the in vivo spatial memory retention of aged-impaired (AI) rats were assessed in a Radial Arm Maze (RAM) behavioral task using vehicle control and four different dosage levels of methyl 3,5-diphenylpyridazine-4-carboxylate (0.1 mg/kg, 0.3 mg/kg, 1 mg/kg and 3 mg/kg, ip). RAM behavioral tasks were performed on eight AI rats. All five treatment conditions (vehicle and four dosage levels) were tested on all eight rats.
The RAM apparatus used consisted of eight equidistantly-spaced arms. An elevated maze arm (7 cm width×75 cm length) projected from each facet of an octagonal center platform (30 cm diameter, 51.5 cm height). Clear side walls on the arms were 10 cm high and were angled at 65° to form a trough. A food well (4 cm diameter, 2 cm deep) was located at the distal end of each arm. Froot Loops™ (Kellogg Company) were used as rewards. Blocks constructed of Plexiglas™ (30 cm height×12 cm width) could be positioned to prevent entry to any arm. Numerous extra maze cues surrounding the apparatus were also provided.
The AI rats were initially subjected to a pre-training test (Chappell et al. Neuropharmacology 37: 481-487, 1998). The pre-training test consisted of a habituation phase (4 days), a training phase on the standard win-shift task (18 days) and another training phase (14 days) in which a brief delay was imposed between presentation of a subset of arms designated by the experimenter (e.g., 5 arms available and 3 arms blocked) and completion of the eight-arm win-shift task (i.e., with all eight arms available).
In the habituation phase, rats were familiarized to the maze for an 8-minute session on four consecutive days. In each of these sessions, food rewards were scattered on the RAM, initially on the center platform and arms and then progressively confined to the arms. After this habituation phase, a standard training protocol was used, in which a food pellet was located at the end of each arm. Rats received one trial each day for 18 days. Each daily trial terminated when all eight food pellets had been obtained or when either 16 choices were made or 15 minutes had elapsed. After completion of this training phase, a second training phase was carried out in which the memory demand was increased by imposing a brief delay during the trial. At the beginning of each trial, three arms of the eight-arm maze were blocked. Rats were allowed to obtain food on the five arms to which access was permitted during this initial “information phase” of the trial. Rats were then removed from the maze for 60 seconds, during which time the barriers on the maze were removed, thus allowing access to all eight arms. […]

Question: What does the source list for `COC(=O)c1c(-c2ccccc2)cnnc1-c1ccccc1` [methyl 3,5-diphenylpyridazine-4-carboxylate]?
Answer: average no. of errors ± SEM in retention test: 1.31±0.40; memory performance relative to vehicle control: significantly improved memory performance
